Here are results for seven compounds from ChEMBL document CHEMBL1955831, “Inhibitors of human histone deacetylase with potent activity against the African trypanosome Trypanosoma brucei” (Bioorg Med Chem Lett, 2012).

The target in assay [1] is Histone deacetylase 2 (Homo sapiens) (UniProt Q92769). Kind of assay: Inhibition of human recombinant HDAC2 expressed using baculovirus expression system using Flour- De-Lys as substrate after 3 hrs by fluorescence analysis.
The target of assay [2] is T1, Histone deacetylase 8 (Homo sapiens) (UniProt Q9BY41).
T1 sequence (whole entry): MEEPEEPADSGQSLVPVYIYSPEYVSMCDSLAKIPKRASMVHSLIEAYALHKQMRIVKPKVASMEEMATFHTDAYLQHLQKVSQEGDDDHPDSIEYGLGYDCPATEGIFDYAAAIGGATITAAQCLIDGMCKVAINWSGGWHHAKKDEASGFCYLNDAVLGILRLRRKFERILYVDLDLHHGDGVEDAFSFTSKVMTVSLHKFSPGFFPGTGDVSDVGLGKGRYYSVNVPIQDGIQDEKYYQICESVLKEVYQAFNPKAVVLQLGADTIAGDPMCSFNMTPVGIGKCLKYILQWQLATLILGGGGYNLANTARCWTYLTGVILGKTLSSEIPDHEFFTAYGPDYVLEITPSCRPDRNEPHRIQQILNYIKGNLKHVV
Kind of assay: Inhibition of human recombinant HDAC8 expressed using baculovirus expression system using Flour- De-Lys as substrate after 3 hrs by fluorescence analysis.

A further assay has as its system Trypanosoma brucei. Kind of assay: Antitrypanosomal activity against bloodstream Trypanosoma brucei 427 assessed as cell death at 2 ug/ml within 4 hrs by Giemsa staining-based DMRB microscopic analysis.
Assay [3] addresses Histone deacetylase 9 (Homo sapiens) (UniProt Q9UKV0). Kind of assay: Inhibition of human recombinant HDAC9 expressed using baculovirus expression system using Flour- De-Lys as substrate after 3 hrs by fluorescence analysis.
Assay [4] addresses Histone deacetylase 3 (Homo sapiens) (UniProt O15379). Kind of assay: Inhibition of human recombinant HDAC3 expressed using baculovirus expression system using Flour- De-Lys as substrate after 3 hrs by fluorescence analysis.
Assay [5] has as its target Histone deacetylase 4 (Homo sapiens) (UniProt P56524). Kind of assay: Inhibition of human recombinant HDAC4 expressed using baculovirus expression system using Flour- De-Lys as substrate after 3 hrs by fluorescence analysis.

Active and inactive are the calls of the source. No cut-off for these calls is given here.

Chain of Histone deacetylase 9 (Homo sapiens) (Q9UKV0 whole entry): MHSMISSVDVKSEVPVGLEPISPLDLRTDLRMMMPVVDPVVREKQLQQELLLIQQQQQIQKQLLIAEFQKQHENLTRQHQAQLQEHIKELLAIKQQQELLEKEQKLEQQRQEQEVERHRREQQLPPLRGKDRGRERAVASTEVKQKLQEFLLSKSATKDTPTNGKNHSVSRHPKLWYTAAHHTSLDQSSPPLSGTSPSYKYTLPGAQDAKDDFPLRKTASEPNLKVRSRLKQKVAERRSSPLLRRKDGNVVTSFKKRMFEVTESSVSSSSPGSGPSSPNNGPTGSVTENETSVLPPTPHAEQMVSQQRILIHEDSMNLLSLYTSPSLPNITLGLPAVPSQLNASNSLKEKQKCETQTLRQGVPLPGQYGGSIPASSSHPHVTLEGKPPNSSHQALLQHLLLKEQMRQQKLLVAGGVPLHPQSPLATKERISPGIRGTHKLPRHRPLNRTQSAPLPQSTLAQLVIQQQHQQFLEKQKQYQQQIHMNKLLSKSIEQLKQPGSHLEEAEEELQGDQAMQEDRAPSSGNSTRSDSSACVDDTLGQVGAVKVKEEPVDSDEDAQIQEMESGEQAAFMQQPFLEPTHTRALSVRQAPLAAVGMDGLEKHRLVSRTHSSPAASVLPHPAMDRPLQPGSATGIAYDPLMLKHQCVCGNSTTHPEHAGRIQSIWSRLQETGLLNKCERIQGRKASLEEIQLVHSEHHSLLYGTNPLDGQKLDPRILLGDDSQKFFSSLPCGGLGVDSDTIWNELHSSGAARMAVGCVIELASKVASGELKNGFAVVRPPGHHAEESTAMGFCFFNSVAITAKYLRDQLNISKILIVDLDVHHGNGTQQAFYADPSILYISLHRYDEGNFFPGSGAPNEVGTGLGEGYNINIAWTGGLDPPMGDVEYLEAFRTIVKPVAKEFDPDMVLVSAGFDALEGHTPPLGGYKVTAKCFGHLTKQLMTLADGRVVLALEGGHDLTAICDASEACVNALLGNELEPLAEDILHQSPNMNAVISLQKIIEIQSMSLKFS
Chain of Histone deacetylase 2 (Homo sapiens) (Q92769 whole entry): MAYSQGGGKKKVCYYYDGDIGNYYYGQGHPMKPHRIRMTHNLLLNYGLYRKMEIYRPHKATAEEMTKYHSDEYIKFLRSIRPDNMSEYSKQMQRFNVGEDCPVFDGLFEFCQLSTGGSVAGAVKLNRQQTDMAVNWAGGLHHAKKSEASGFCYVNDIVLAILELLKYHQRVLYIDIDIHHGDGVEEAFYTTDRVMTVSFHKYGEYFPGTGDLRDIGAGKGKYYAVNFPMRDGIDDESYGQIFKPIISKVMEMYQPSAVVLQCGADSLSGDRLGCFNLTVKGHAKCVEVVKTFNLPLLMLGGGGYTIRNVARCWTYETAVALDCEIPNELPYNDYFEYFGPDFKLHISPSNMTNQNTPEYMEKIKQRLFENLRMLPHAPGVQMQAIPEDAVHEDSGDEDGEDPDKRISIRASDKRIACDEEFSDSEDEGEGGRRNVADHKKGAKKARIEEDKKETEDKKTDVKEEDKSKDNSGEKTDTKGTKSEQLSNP
Chain of Histone deacetylase 4 (Homo sapiens) (P56524 whole entry): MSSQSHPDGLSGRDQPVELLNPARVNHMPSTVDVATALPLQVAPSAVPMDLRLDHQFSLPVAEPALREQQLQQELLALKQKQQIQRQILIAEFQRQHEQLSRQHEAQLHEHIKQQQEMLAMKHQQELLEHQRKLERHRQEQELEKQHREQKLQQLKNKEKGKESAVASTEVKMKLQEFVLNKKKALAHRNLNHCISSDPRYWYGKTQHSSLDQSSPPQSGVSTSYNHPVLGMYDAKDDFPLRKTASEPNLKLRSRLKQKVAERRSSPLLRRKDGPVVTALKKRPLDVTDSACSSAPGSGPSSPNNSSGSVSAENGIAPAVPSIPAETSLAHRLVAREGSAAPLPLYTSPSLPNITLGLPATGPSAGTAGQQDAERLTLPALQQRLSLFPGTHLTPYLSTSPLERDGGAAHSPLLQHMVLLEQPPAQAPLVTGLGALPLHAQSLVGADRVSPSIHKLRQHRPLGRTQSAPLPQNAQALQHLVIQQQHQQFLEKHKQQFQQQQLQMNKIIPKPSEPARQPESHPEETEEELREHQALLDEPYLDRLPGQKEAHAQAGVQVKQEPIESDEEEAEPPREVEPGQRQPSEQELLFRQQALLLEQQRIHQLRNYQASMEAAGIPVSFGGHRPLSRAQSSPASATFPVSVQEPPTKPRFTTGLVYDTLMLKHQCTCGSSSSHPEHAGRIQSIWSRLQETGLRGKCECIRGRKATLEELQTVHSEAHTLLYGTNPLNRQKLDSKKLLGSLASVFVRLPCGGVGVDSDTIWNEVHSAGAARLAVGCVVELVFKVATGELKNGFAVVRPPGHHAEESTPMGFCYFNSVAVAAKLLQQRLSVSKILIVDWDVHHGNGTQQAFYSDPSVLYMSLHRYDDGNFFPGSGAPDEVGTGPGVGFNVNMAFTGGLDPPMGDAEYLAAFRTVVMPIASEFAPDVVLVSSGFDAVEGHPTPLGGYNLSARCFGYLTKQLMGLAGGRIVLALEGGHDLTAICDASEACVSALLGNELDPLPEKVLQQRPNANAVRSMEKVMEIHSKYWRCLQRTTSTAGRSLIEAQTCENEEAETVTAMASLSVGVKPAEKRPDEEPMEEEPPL
Chain of Histone deacetylase 3 (Homo sapiens) (O15379 whole entry): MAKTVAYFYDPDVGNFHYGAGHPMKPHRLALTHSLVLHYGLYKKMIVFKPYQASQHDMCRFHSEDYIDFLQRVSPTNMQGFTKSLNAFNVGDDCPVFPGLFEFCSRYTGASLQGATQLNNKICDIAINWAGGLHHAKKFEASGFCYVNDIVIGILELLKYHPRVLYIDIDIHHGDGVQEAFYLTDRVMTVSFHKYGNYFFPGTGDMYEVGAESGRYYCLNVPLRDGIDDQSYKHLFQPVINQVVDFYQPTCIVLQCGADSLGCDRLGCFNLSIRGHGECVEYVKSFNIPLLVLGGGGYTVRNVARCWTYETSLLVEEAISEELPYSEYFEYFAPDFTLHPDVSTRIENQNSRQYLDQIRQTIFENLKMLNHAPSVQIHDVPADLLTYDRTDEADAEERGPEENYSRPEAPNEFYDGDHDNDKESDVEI

Turning to `COc1ccc(NS(=O)(=O)c2cccc(/C=C/C(=O)NO)c2)cc1`, the ED50 in assay [1] was 105 nM.

Consider `O=C(/C=C/c1cccc(S(=O)(=O)N2CCN(c3ccccn3)CC2)c1)NO`, for which the ED50 in assay [2] is 581 nM.

On to `O=C(/C=C/c1cccc(S(=O)(=O)N2CCN(c3ncccn3)CC2)c1)NO`, for which, in the assay on Trypanosoma brucei, the result was Active.

With `COc1ccc(N2CCN(S(=O)(=O)c3cccc(/C=C/C(=O)NO)c3)CC2)cc1`, the ED50 in assay [3] was determined as 1180 nM.

`COc1ccccc1N1CCN(S(=O)(=O)c2cccc(/C=C/C(=O)NO)c2)CC1`: the ED50 in assay [3] came to 145 nM.

Take `O=C(/C=C/c1nc2ccccc2o1)NO`: the ED50 in assay [4] stood at 97 nM.

Take `O=C(/C=C/c1cccc(S(=O)(=O)Nc2cccc(F)c2)c1)NO`: in assay [5], the ED50 stood at 65 nM.
